This assay has as its target T1, Staphylococcus aureus DNA pol IIIC enzyme (Staphylococcus aureus, UniProt Q5HGG7).
T1 construct: The recombinant protein had full length of original protein and a His tag, a thrombin site and a T7 tag at N-terminus; His tag (N); thrombin site (N); T7 tag (N); made in house; host or cells: E. coli BL21 (DE3), plasmid pET-28a(+)
T1 sequence (Q5HGG7 1-1438): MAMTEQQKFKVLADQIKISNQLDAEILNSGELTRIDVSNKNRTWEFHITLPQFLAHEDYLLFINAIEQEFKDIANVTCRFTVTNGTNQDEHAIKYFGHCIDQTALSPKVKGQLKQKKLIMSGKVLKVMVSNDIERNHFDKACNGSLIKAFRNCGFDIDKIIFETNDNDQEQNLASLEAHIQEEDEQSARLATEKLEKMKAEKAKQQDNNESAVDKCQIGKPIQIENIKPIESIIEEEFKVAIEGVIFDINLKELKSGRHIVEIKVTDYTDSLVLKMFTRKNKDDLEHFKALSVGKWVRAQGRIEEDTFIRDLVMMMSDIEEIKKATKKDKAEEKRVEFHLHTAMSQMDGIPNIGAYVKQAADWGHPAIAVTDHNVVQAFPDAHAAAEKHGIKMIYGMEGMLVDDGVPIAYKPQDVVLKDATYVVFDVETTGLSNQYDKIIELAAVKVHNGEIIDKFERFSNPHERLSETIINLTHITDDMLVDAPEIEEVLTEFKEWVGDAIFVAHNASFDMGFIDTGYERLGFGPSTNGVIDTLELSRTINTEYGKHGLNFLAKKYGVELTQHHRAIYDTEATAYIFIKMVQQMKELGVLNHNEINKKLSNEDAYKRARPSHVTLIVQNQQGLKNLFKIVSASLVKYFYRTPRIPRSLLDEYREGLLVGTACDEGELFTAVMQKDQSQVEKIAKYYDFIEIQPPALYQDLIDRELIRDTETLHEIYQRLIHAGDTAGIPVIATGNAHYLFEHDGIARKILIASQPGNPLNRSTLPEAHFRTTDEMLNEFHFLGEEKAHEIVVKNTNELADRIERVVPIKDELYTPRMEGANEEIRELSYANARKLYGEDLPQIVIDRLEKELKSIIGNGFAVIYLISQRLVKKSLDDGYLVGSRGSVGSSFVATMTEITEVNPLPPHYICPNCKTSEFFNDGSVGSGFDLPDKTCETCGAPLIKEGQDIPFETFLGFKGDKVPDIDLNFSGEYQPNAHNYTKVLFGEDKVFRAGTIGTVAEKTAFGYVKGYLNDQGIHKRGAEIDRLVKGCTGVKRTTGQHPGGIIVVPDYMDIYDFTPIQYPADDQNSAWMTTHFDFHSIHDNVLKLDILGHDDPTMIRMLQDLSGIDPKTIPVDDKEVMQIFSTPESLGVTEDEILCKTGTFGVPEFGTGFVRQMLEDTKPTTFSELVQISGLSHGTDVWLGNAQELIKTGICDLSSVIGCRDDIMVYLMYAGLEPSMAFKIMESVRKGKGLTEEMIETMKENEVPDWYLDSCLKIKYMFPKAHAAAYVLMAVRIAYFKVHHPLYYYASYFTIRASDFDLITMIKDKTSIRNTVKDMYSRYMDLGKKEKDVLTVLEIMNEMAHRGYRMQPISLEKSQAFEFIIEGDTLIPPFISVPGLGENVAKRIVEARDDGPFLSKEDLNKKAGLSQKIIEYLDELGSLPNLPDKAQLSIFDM
In words: Ki assay for DNA polymerase IIIC (3H-dTTP incorporation, truncated assay). In kind it is biochemical. The following applies: Ki = concentration giving 50% inhibition of control activity; range stated for the listed group; read-out: Ki against Staphylococcus aureus DNA pol IIIC enzyme. The source says: The ability of a compound to inhibit the activity of DNA pol IIIC enzyme can be tested by using a DNA polymerase assay as described, for example, in Barnes and Brown, Nucl. Acids Res. 1979, 6, 1203-1219; Trantolo et al., J. Med. Chem. 1986, 29, 676-681; Mills et al., J. Bacterial. 1977, 132, 641-649; Low et al., J. Biol. Chem. 1976, 251, 1311-1325. This rapid screening method can use natural or recombinant DNA pol III enzymes in a standard DNA polymerase activity assay. By including a test compound in a side-by-side assay with a control, the effect of the test compound on polymerase activity can be assessed. Compounds with an appropriate level (Ki<[…]) of inhibition of the natural or recombinant bacterial DNA polymerase III are preferred.
The DNA polymerase IIIC coding genes were amplified from genomic DNA. The primers were designed so the 5′-terminal and 3′-terminal contain BamHI and XhoI cutting site respectively. The fragment was directly inserted into expression plasmid pET-28a(+) between BamHI and XhoI sites. The recombinant protein had full length of original protein and a His tag, a thrombin site and a T7 tag at N-terminus. The coding sequence of recombinant protein was confirmed by Sanger sequencing using 8 primers to cover the entire coding regions.
The plasmid was transferred into BL21 (DE3) competent E. coli cells. The positive colonies were inoculated into 1 L LB medium and incubated at 37° C. with 200 rpm rotation to reach OD600=0.6. The inducer IPTG 1 mM was then added to induce the expression for 18 hours at 16° C. The cells were harvested and suspended in lysis buffer (25 mM Tris-HCl pH=7.5, 0.15 M NaCl, 20 mM imidazole, 2 mM β-mecaptoethanol and 1×Roche proteinase inhibitor cocktail). The cells were lyzed by sonication, and the debris was spun down at 50000 g for 1 hour.
The protein was isolated first by passing through the lysate through Ni column. The column was washed with 50 column volume (CV) binding buffer (lysis buffer without proteinase inhibitor) and then 10 CVs of washing buffer (binding buffer with total 40 mM imidazole). The protein was eluted out with elusion buffer (binding buffer with total 300 mM imidazole).
The crude extract was then further purified by size exclusion chromatography using a Superdex 200 increase 10/300 column with 25 mM Tris-HCl pH 7.5, 0.15 M NaCl, 5% Glycerol and 1 mM DTT. The final product was stored as 50-100 μL aliquots at −80° C.
The compounds were dissolved in DMSO to 1 mg/ml (or 10 mg/ml) as compound working solution. On the day of the test, […] of DMSO was added into well A, and 100 μL of DMSO was added into wells B through well H in a round bottom 96 well plate (Corning-3788). An aliquot of 20 μL compound working solution was added into well A and mixed by pipetting. From well A, […] solution was transferred to well B and mixed by pipetting to make a 3 x dilution. The procedure was repeated for well B to well C, and so forth until well G. Well H contained DMSO only. This generated a serial of compound working solutions with concentrations at 100, 33.3, 11.1, 3.7, 1.2, 0.4, 0.14, and 0 μg/ml in pure DMSO. This was deemed the ‘mother plate’.
Using a 96-head pipette station (CyBio), 1 μL compound working solutions were transferred from the mother plate into an identical 96-well plate. This was the ‘testing plate’. The testing plate was kept at room temperature.
The enzyme (DNA polymerase IIIC) samples were taken out from −80° C. freezer. It was thawed and kept on ice. The enzyme was diluted to 0.025-0.06 U/μL with dilution buffer (25 mM Tris-HCl, pH=7.5, 0.15M NaCl, 5% Glycerol, 1 mM DTT). One unit of enzyme is defined as the amount of enzyme could incorporate 250 μmole of dTTP in 30 minutes in a standard assay (with the presence of all nucleotide as substrate, in contrast to “truncated assay” from which dGTP was omitted) in the same system. The diluted enzymes were added into a new 96-well plate (Corning-3788) 20 μL per well. This plate was kept on ice. […]
On to `Cn1ncc2nc(NCc3ccc(Cl)c(Cl)c3)[nH]c(=O)c21` [Compound 2, 5-((3,4-Dichlorobenzyl)amino)-1-methyl-1H-pyrazolo[4,3-d]pyrimidin-7(6H)-one], for which the Ki fell in the range of 53 to 1000 nM. Take `Cc1nn(C)c2c(=O)[nH]c(NCc3ccc(Cl)c(Cl)c3)nc12` [Compound 44, 5-((3,4-dichlorobenzyl)amino)-1,3-dimethyl-1H-pyrazolo[4,3-d]pyrimidin-7(6H)-one]: the Ki was in the range of 53 to 1000 nM. On to `C=CCn1ncc2nc(NCc3ccc(Cl)c(Cl)c3)[nH]c(=O)c21` [Compound 56, 1-allyl-5-((3,4-dichlorobenzyl)amino)-1H-pyrazolo[4,3-d]pyrimidin-7(6H)-one], for which the Ki lay in the range of 53 to 1000 nM. The result for `O=c1[nH]c(NCc2ccc(Cl)c(Cl)c2)nc2cn[nH]c12` [Compound 77, 5-((3,4-dichlorobenzyl)amino)-1H-pyrazolo[4,3-d]pyrimidin-7(6H)-one] reads 53 to 1000 nM; that for `COCCn1ncc2nc(NCc3ccc(Cl)c(Cl)c3)[nH]c(=O)c21` [Compound 126, 5-((3,4-dichlorobenzyl)amino)-1-(2-methoxyethyl)-1H-pyrazolo[4,3-d]pyrimidin-7(6H)-one], 53 to 1000 nM.

Consider `Cl.O=c1[nH]c(NCc2ccc(Cl)c(Cl)c2)nc2cnn(CC3CNCCO3)c12` (stereo not drawn) [Compound 149, 5-((3,4-dichlorobenzyl)amino)-1-(morpholin-2-ylmethyl)-1H-pyrazolo[4,3-d]pyrimidin-7(6H)-one hydrochloride], for which the Ki is 53 to 1000 nM. Then `Cl.Cl.O=c1[nH]c(NCc2ccc(Cl)c(Cl)c2)nc2cnn(CCOCCN3CCNCC3)c12` [Compound 167, 5-[(3,4-dichlorophenyl)methylamino]-1-[2-(2-piperazin-1-ylethoxy)ethyl]-6H-pyrazolo[4,3-d]pyrimidin-7-one], with 53 to 1000 nM; and `CN(C)CCOCCn1ncc2nc(NCc3ccc(Cl)c(Cl)c3)[nH]c(=O)c21.Cl` [Compound 211, 5-((3,4-dichlorobenzyl)amino)-1-(2-(2-(dimethylamino)ethoxy)ethyl)-1H-pyrazolo[4,3-d]pyrimidin-7(6H)-one hydrochloride], with 53 to 1000 nM. The result for `O=c1[nH]c(NCc2ccc(Cl)c(Cl)c2)nc2cnn(-c3ccccc3)c12` [Compound 212, 5-[(3,4-dichlorophenyl)methylamino]-1-phenyl-6H-pyrazolo[4,3-d]pyrimidin-7-one] reads 53 to 1000 nM; that for `O=c1[nH]c(NCc2ccc(Cl)c(Cl)c2)nc2cnn(C3CC3)c12` [Compound 213, 1-Cyclopropyl-5-((3,4-dichlorobenzyl)amino)-1H-pyrazolo[4,3-d]pyrimidin-7(6H)-one], 53 to 1000 nM; that for `O=c1[nH]c(NCc2ccc(Cl)c(Cl)c2)nc2cnn(C3CCCC3)c12` [Compound 214, 1-cyclopentyl-5-((3,4-dichlorobenzyl)amino)-1H-pyrazolo[4,3-d]pyrimidin-7(6H)-one], 53 to 1000 nM. The result for `COC(=O)CCCCn1ncc2nc(NCc3ccc(Cl)c(Cl)c3)[nH]c(=O)c21` [Compound 218, methyl 5-[5-[(3,4-dichlorophenyl)methylamino]-7-oxo-6H-pyrazolo[4,3-d]pyrimidin-1-yl]pentanoate] reads 53 to 1000 nM; that for `Cl.O=c1[nH]c(NCc2ccc(Cl)c(Cl)c2)nc2cnn(C3CCN(C4CCOCC4)CC3)c12` [Compound 242, 5-((3,4-dichlorobenzyl)amino)-1-(1-(tetrahydro-2H-pyran-4-yl)piperidin-4-yl)-1H-pyrazolo[4,3-d]pyrimidin-7(6H)-one hydrochloride], 53 to 1000 nM; that for `O=C(O)CCC(=O)N1CCC(n2ncc3nc(NCc4ccc(Cl)c(Cl)c4)[nH]c(=O)c32)CC1` [Compound 273, 4-(4-(5-((3,4-dichlorobenzyl)amino)-7-oxo-6,7-dihydro-1H-pyrazolo[4,3-d]pyrimidin-1-yl)piperidin-1-yl)-4-oxobutanoic Acid], 53 to 1000 nM. Consider `O=C([C@@H](O)[C@H](O)CO)N1CCC(n2ncc3nc(NCc4ccc(Cl)c(Cl)c4)[nH]c(=O)c32)CC1` [Compound 276, 5-((3,4-dichlorobenzyl)amino)-1-(1-((2S,3R)-2,3,4-trihydroxybutanoyl)piperidin-4-yl)-1H-pyrazolo[4,3-d]pyrimidin-7(6H)-one], for which the Ki lay within 53 to 1000 nM.

(Values after patent US10723741B1, “DNA polymerase IIIC inhibitors and use thereof” (Acurx Pharmaceuticals, LLC, priority 2018, dated 2020).)
